Data taken from a melting point compilation (Tetko et al.; mined from patent text by program, amines drawn as free bases though some values may be those of a salt).

melting point [°C]	Structure (SMILES)
116 to 117	COc1cc(C)c(C(=O)c2c(C(F)(F)F)ccnc2Cl)cc1OCc1ccccc1
216	O=C(O)c1ccccc1NC(C(=O)O)c1ccc(Br)cc1 (configuration not stated)
181 to 183	CCc1nc2ccc(Cc3ccc(C(=O)NO)cc3)cc2c(=O)n1CCc1ccccc1
107 to 114	COC(=O)NC1CN(C(=O)Nc2ccc(OC(F)(F)F)cc2)NC1c1ccc(Cl)cc1 (configuration not stated)
135	O=C(O)Cc1cc(N=Nc2ccc(S(=O)(=O)Nc3ccccn3)cc2)ccc1O
224 to 225	O=c1[nH]c2cc([N+](=O)[O-])cnc2n1-c1ccc2c(c1)OCO2
169 to 171	COc1cccc2oc(-c3ccc(C)cc3)cc(=O)c12
123 to 124	CCCCOc1c(CNC(=O)OC(C)(C)C)n(CC(C)C)c(=O)c2ccc(-c3ccccn3)cc12
123 to 125	COc1cc2ncc(C#N)c(Nc3cccc(CO)c3C)c2cc1OC
107 to 108	COC(=O)c1ccc(S(C)(=O)=O)c(C)c1Cl
222 to 224	COc1ccc(C2=C(/C=C/C(=O)O)CCc3cc(OC)ccc32)cc1
196 to 198	Cc1c(O)ccc2c(=O)c(-c3ccccc3O)coc12
99 to 100	CCOC(=O)c1ccc(Sc2cc3c(cc2C(C)C)C(C)(C)CCC3(C)C)cc1
122 to 124	CN(C)S(=O)(=O)c1ccc2c(c1)C(=O)c1ccccc1CC2
110 to 112	COC(=O)C1(CCCN2CCN(c3ccccc3)CC2)Sc2cc(OC)ccc2OCC1=O (configuration not stated)
136 to 140	Cc1ccc(C=C2C(=O)N(c3cc(F)ccc3F)C(=O)N2C)cc1
241 to 242	CN(c1cccc2cc(C(=O)O)[nH]c12)S(=O)(=O)c1nccn1C
179 to 184	COc1ccccc1N1CCCN(c2ccnc3sc(C(N)=O)c(N)c23)CC1
103 to 105	CN(CC(=O)c1cccn1Cc1ccccc1[N+](=O)[O-])Cc1ccccc1

melting point [°C]	Structure (SMILES)
170	COC(=O)c1cc(C(=O)c2ncc3ccc(C(=O)OC(C)(C)C)cn23)ccc1[N+](=O)[O-]
192	COC(=Cc1ccc(-c2cccc(N(C)C(=O)NC3CCCCC3)c2)cc1)C(=O)O
121 to 122	CC(=O)c1c(-c2ccccc2Cl)nc2occn12
192	CCOc1ccc2c(c1)C(C)(c1cc(NC(=O)c3cccnc3)ccc1Cl)C(=O)N2S(=O)(=O)c1ccc(C(=O)NC(C)(C)C)cc1OC (configuration not stated)
76 to 80	Cc1onc(C(=O)c2c(F)cccc2F)c1NC(=O)CBr
267 to 271	Cn1cc(-c2cc3nccnc3[nH]2)c2cc(OC3(CO)CCC3)ccc21
138 to 142	CCOC(=O)c1cnc2c(NC(=O)c3c(Cl)cccc3Cl)cccc2c1COC(C)=O
162 to 165	CCOC(=O)C=Cc1ccc(Cl)cc1N(CC(=O)c1ccc(Cl)cc1)S(=O)(=O)c1ccc(C)cc1
55 to 58	CC(C)CCc1c(-c2ccc(S(C)(=O)=O)cc2)cnn(-c2ccc(F)c(Cl)c2)c1=O
76	CN(C)c1ccc(S(=O)(=O)n2c(CCCC(=O)O)cc3nc(Cl)ccc32)cc1
253 to 255	Cc1cc(C#N)cc(CNc2c(NC(C)(C)C)c(=O)c2=O)c1
200 to 201	COc1ccc(C(=O)Nc2ccc(C(C)=O)cc2)cc1C12CC3CC(CC(C3)C1)C2
95	CC(=O)c1cnccc1NC(=O)C(C)(C)C
142 to 145	CCOC(=O)c1csc(-c2cccc([N+](=O)[O-])c2)n1
134 to 136	O=C(c1cc[nH]c1)c1ccc2ccccc2c1
149 to 153	COC1=C(OC)C(=O)C2=C(CC(CCCCOc3ccc(C(=O)O)cc3)C2)C1=O
82 to 83	CCN(C(=O)c1c(Cl)cccc1[Si](C)(C)C)C(OC)C(C)(C)C (configuration not stated)
115 to 118	O=C1Cc2cc(NC(=O)C(=O)N3CCC(Cc4ccccc4)CC3)ccc2N1

Second part, the compound before the results:

Structure (SMILES)	melting point [°C]
CC[C@@]1(O)CC(=O)c2c(OC)ccc(OC)c2C1	132 to 134
Nc1c2c(nc3ccccc13)C1CCC2C1 (configuration not stated)	185 to 186
COc1ccc2c(c1)CN(CCc1ccc(NC(=O)c3cccc4c(=O)c5cccc(OC)c5[nH]c34)cc1)CC2	213 to 216
c1ccc(-c2cc(-c3ccc(C4CCCC4)cc3)sc2-c2ccccc2)cc1	150
O=c1oc2c(OCc3nnn[nH]3)c(O)c(OCc3nnn[nH]3)c(O)c2c2c1CCCC2	283 to 286
COc1ccc(C=O)c(OC)c1I	103
CCCCc1nc2cc(Cl)c(Cl)c(C(=O)O)c2n1Cc1ccccc1Cl	240
Cc1oc(-c2ccccc2)nc1COc1ccc(Cn2cc(CCC(=O)O)c(-c3ccccc3)n2)cc1	179 to 180
Cc1nc(CCOc2ccc(CC3SC(=N)NC3=O)cc2)oc1-c1ccccc1 (configuration not stated)	194 to 195
CC(=O)NC1CCNC(c2cccc(Oc3ccccc3)n2)C1 (configuration not stated)	104 to 106
O=C(Cl)/C=C/c1cccc(Br)c1	85 to 86
CCCCC(OCC(=O)c1ccccc1)C(F)CC (configuration not stated)	39.6 to 40.1
N#CCCNC(=S)C1=CC(CF)(CF)Oc2ccc([N+](=O)[O-])cc21	114 to 116
CCCCCCNC(=O)NC1CCCc2sccc21 (configuration not stated)	122 to 124
Cc1ccccc1-c1cn2ccc3ccccc3c2n1	93
Nc1nc2ccccc2c2c1ncn2COCCO	210 to 212
COCC#Cc1ccc(C(CC2CCCC2)C(=O)O)cc1 (configuration not stated)	82 to 85
CCOC(=O)c1ncc2[nH]c3cccc(CN4CCOCC4)c3c2c1COC	195 to 196
CC(NC(=O)C1CCNCC1)c1ccccc1 (configuration not stated)	136
CC[C@H](C)[C@H](NC(=O)NCCC1CCCCC1)C(=O)N[C@H](CO)Cc1c[nH]c2ccccc12	182 to 184
CCCc1c(O)ccc2oc(Cc3ccc(O)cc3)c(C)c12	138 to 142
CCCC(=NOCC)C1=C(O)CC(c2cc3ccccc3o2)CC1=O (configuration not stated)	70

Structure (SMILES)	melting point [°C]
NCCCCOc1ccc2c(c1)NC(=O)C(CC(=O)O)C2 (configuration not stated)	229 to 230
Cc1cccc2c1N(CCN(C(C)C)C(C)C)C(=O)/C2=N/NC(N)=O	194 to 195
Oc1nc2cc(F)ccc2n2cnnc12	> 300
CCCCCCCCOc1ccc(O)c2ccccc12	73 to 74
O=c1c(Cl)c(S(=O)(=O)C2CCCCC2)cnn1-c1ccccc1	195 to 196
O=S1(=O)N[C@@H](c2ccccc2)c2ccccc21	139
CN1CC(=O)N2[C@H](c3ccc4occc4c3)c3[nH]c4ccccc4c3C[C@@H]2C1=O	291 to 293
CNc1c(Cl)cc2c3c(cccc13)C(=O)N(C1CCN(C)CC1)C2=O	298 to 302
OCCCC1=NN(c2nccs2)C(O)(c2ccc(Cl)cc2)C1 (configuration not stated)	146 to 147
O=C1c2c(Cl)cccc2-n2cnc(-c3noc(C4CC4)n3)c2[C@@H]2CCCN12	236 to 237
Cc1ccc(C2=C(C#N)C(c3cccc4nonc34)c3c[nH]nc3N2)s1 (configuration not stated)	192
CCOc1ccc(Cn2cnc3c(-c4ccco4)ncnc32)cc1	165 to 166
OC1(Cn2cncn2)CCCCC12OC2c1ccc(Cl)cc1 (configuration not stated)	150
COCCOc1cc2c(Nc3cc(OC)c(Cl)cc3Cl)c(C#N)cnc2cc1F	170 to 172
CSc1c2c(nn1C)N(c1c(C)cc(C)cc1C)CCC2	90.3 to 91.7
O=C1CCCCN1S(=O)(=O)c1ccc(N2CCCCC2)cc1	140 to 145
CC(C)(C)OC(=O)NCC[C@H]1CC[C@H](COS(C)(=O)=O)CC1	83 to 84
O=C1NC(=O)C(=Cc2ccc(CCSc3ccccc3)cc2)S1	159 to 161
CN(CCCc1ccccc1)[C@H]1CC[C@H](c2ccc(O)cc2)CC1	156 to 158
Nc1cccc2c1S(=O)(=O)CC2	117 to 119
CCOC(=O)c1ccc(Cl)c(Cl)c1	33 to 35
CCCOc1ccccc1-c1nc(C)cc(O)n1	109 to 110

Structure (SMILES)	melting point [°C]
CCOC(=O)c1c(-c2ccc(OC)cc2)c2oc3ccc(-c4ccccc4)cc3c2n(Cc2cc(OC)ccc2OC)c1=O	216
Cc1cc(O)nc2c1CCCC2	250 to 252
CCc1cccc2c3c([nH]c12)C(CC)(CC(=O)O)OCC3=O (configuration not stated)	200 to 202
CC(=O)c1cccnc1N(C)C1CCN(Cc2ccccc2)CC1	93 to 94
COc1cc(-n2cnc(CO)c2)cc(C(F)(F)F)c1	133 to 134
CC1CSC2=CC=NC3=CC=CC(c4ccccc4)C321 (configuration not stated)	164
N#Cc1c(Cl)ccc(C(=O)O)c1Cl	230 to 232
CCCCCCCCCCCCCCCCOCC(O)CCSCCCN(C)C (configuration not stated)	30 to 32
O=Cc1c2ccsc2cc2c1ccc1ccccc12	178 to 180
O=C(C=Cc1ccccc1)Nc1ccccc1NC(=O)C=Cc1ccccc1	212
O=C(O)c1cc2c3cc(Br)c(Br)cc3n(Cc3ccccc3)c2s1	269 to 273
CCc1cc2c(Cl)ccc(-n3c(=O)cc(C(F)(F)F)n(C)c3=O)c2o1	159 to 160
CCn1ccc2c(c1=O)CN=C(N1CCN(Cc3ccccc3)CC1)N2	200 to 203
CCCCCCCCC(O)CNCCCNCC(O)CCCCCCCC (configuration not stated)	104 to 108
Cc1c(C)c(C)c(S(=O)(=O)NC(Cc2nc3ccc(C=CCNC4=NCCN4)cc3c(=O)[nH]2)C(=O)O)c(C)c1C (configuration not stated)	131 to 135
OCCON=Cc1cncc(-c2ccccc2)c1	102 to 104
CCC(Oc1ccccc1Br)C(=O)OC1CC(O)C=C2C=CC(C)C(CCC3CC(O)CC(=O)O3)C21 (mixture of isomers)	160 to 162
O=Cc1c[nH]cc1-c1ccccc1Cl	147 to 148
CCCCCCCCOc1ccc(C(C)(C)CC(C)(C)C)cc1S(=O)(=O)NCC(C)c1nn2nc(C)c(Cl)c2[nH]1 (configuration not stated)	135 to 137
Cc1cccc(Nc2cc(Nc3ccc(OCCO)cc3)ncn2)c1	196 to 199
COC(=O)N1C(=O)[C@H](O)[C@@H]1c1ccccc1	91 to 92
